# In patent US7947285B2, “Methods for preventing post endoscopic retrograde cholangiopancreatography pancreatitis” (priority 2003, dated 2011):
# Where no end group is shown, it is not given here.
# Tested on: patients undergoing ERCP
# Assay: Incidence and severity of post-ERCP pancreatitis, randomized double-blind placebo controlled study
# Assay type: in vivo, human
# Excerpt: This was a prospectively randomized, parallel group, double-blind, placebo controlled study conducted at one center. This was the ideal study design for evaluation of the prophylactic use of sPS in ERCP to decrease the incidence of post-ERCP pancreatitis. Parallel group design was necessary because patients usually require only one ERCP and, in any case, the first procedure might have an unknown effect on the outcome of a subsequent ERCP. Double-blinding the study was necessary because a major component of the evaluation related to symptoms such as pain and nauseas, which are, in part, subjective for the patient. The final classification of each patient required an overall medical judgment by the investigator. In order for this to be as objective as possible, the assessor (Principal Investigator) had to be blinded. Placebo control with normal saline was required because there is no approved or medically accepted drug to prevent post-ERCP pancreatitis. Further, sterile normal saline, USP for injection was completely safe with no pharmacological effect and produced a clear, colorless solution, which was indistinguishable from reconstituted sPS.
# Patients undergoing ERCP for medical reasons were the appropriate population to evaluate because only those requiring ERCP have the procedure and are subject to the known risk of post-ERCP pancreatitis. The patients had to meet all of the inclusion criteria to be enrolled in the study. […] Subjects were discontinued for the following reasons: (1) voluntary withdraw at subject's request; (2) noncompliance by subject to study procedures; (3) protocol violation such as discovery of pancreas divisum at the time of the ERCP, or (4) excessive toxicity from any study procedure or drug which in the judgment of the investigator makes continuation in the study contrary to the subject's medical interests. Subjects who discontinued from the study after receiving study drug were followed for safety and were replaced.
# This study compared synthetic porcine secretin (sPS) at a dose of 16 mcg (8 mL) (24 mcg for procedures longer than 30 minutes) given as a slow IV push over one minute and an equal volume of physiologic sterile saline USP for injection. Subjects were randomly assigned to one of two treatment groups (sPS vs. saline placebo) based on a randomization schedule generated at ChiRhoClin, Inc (Burtonsville, Md.). […] The final syringe with an identical appearing clear, colorless solution of identical volume containing either reconstituted sPS or saline was then delivered to the investigator performing the ERCP. The randomization code assigned patients in a 1:1 manner between the two treatments and was balanced in blocks of 250 patients.
# Incidence of post-ERCP pancreatitis (sPS vs. placebo) was evaluated as the primary efficacy variable in this study. Secondary efficacy variables included incidences of post-ERCP pancreatitis in the following sub-populations: (1) cannulation of CBD; (2) sphincterotomy of CBD; (3) cannulation of pancreatic duct; (4) sphincterotomy of pancreatic duct; (5) stent insertion and removal into CBD; (6) stent insertion and removal into pancreatic duct; (7) stone extraction (basket) from CBD; (8) stone extraction (balloon) from CBD; (9) manometry of CBD; (10) manometry of pancreatic duct; (11) pain scores pre and post ERCP (0-10 scale); (12) nausea scores pre and post ERCP (0-10 scale); (13) vomiting scores pre and post ERCP (0-10 scale); (14) return to baseline activity (pre-ERCP); and (15) return to work.
# In addition, the severity of pancreatitis was graded as defined by Cotton (Cotton, PB Gastrointest. Endosc. 40(4):514-18 (1994)), using the following criteria: (1) Minimal—managed on an outpatient basis; (2) Mild—Required hospitalization ≦3 days; (3) Moderate—required hospitalization for 4 to 10 days; and (4) Severe—required hospitalization for >10 days, ICU admission, surgical intervention or death. […]
# [1] = of 44 cases, hospitalization 4 to 10 days
# [2] = of 44 cases, hospitalization >10 days, ICU, surgery or death
# [3] = of 44 cases, hospitalization ≦3 days
# [4] = of 44 cases, managed on an outpatient basis
# [5] = overall, N = 488, 16 mcg IV (24 mcg if >30 min), p 0.0161 vs placebo
# [6] = sub-population Cannulation of CBD, N = 361
# [7] = sub-population Cannulation of CBD, N = 361, p 0.0010
# [8] = sub-population Cannulation of Pancreatic Duct, N = 220
# [9] = sub-population Cannulation of Pancreatic Duct, N = 220, p 0.1237
# [10] = sub-population Manometry of CBD, N = 19
# [11] = sub-population Manometry of CBD, N = 19, p 0.0819
# [12] = sub-population Manometry of Pancreatic Duct, N = 11
# [13] = sub-population Manometry of Pancreatic Duct, N = 11, p 0.3665
# [14] = sub-population Sphincterotomy of CBD, N = 140
# [15] = sub-population Sphincterotomy of CBD, N = 140, p 0.0001
# [16] = sub-population Sphincterotomy of Pancreatic Duct, N = 26
# [17] = sub-population Sphincterotomy of Pancreatic Duct, N = 26, p 0.1666
# [18] = sub-population Stent Insertion into CBD, N = 108
# [19] = sub-population Stent Insertion into CBD, N = 108, p 0.0856
# [20] = sub-population Stent Insertion into Pancreatic Duct, N = 23
# [21] = sub-population Stent Insertion into Pancreatic Duct, N = 23, p 1.0000
# [22] = sub-population Stent Removal from CBD, N = 58
# [23] = sub-population Stent Removal from CBD, N = 58, p 0.6185
# [24] = sub-population Stent Removal from Pancreatic Duct, N = 17
# [25] = sub-population Stent Removal from Pancreatic Duct, N = 17, p 1.0000
# [26] = sub-population Stone Extraction (Balloon), N = 55
# [27] = sub-population Stone Extraction (Balloon), N = 55, p 1.0000
# [28] = sub-population Stone Extraction (Basket), N = 35
# [29] = sub-population Stone Extraction (Basket), N = 35, p 0.2298
substance,measurement,setting,value
"synthetic porcine secretin (HSDGTFTSELSRLRDSARLQRLLQGLV-NH2; ends and bridges not checked; UniProt P63298 33-59, looked up) [SPS, synthetic form of porcine secretin, a 27 amino acid gastrointestinal peptide hormone]",Post-ERCP Pancreatitis Severity Total (%),N = 488/44,100.0%
same,Post-ERCP Pancreatitis Severity Total: number of cases,N = 488/44,44
same,Post-ERCP Pancreatitis Severity Unknown (%),of 44 cases,15.91%
same,Post-ERCP Pancreatitis Severity Unknown: number of cases,of 44 cases,7
same,Post-ERCP Pancreatitis Severity Moderate (%),[1],20.45%
same,Post-ERCP Pancreatitis Severity Moderate: number of cases,[1],9
same,Post-ERCP Pancreatitis Severity Severe (%),[2],2.27%
same,Post-ERCP Pancreatitis Severity Severe: number of cases,[2],1
same,Post-ERCP Pancreatitis Severity Mild (%),[3],31.82%
same,Post-ERCP Pancreatitis Severity Mild: number of cases,[3],14
same,Post-ERCP Pancreatitis Severity Minimal (%),[4],29.55%
same,Post-ERCP Pancreatitis Severity Minimal: number of cases,[4],13
same,"Incidence of Post-ERCP Pancreatitis, No (%)","overall, N = 488, 16 mcg IV",90.98%
same,"Incidence of Post-ERCP Pancreatitis, No: number of patients","overall, N = 488, 16 mcg IV",444
same,"Incidence of Post-ERCP Pancreatitis, Yes (%)",[5],9.02%
same,"Incidence of Post-ERCP Pancreatitis, Yes: number of patients",[5],44
same,magnitude of the decrease in the frequency of post-ERCP pancreatitis,"relative to placebo, 979 patients, p=0.0137",36.2%
same,Post-ERCP Pancreatitis No (%),[6],92.52%
same,Post-ERCP Pancreatitis No: number of patients,[6],334
same,Post-ERCP Pancreatitis Yes (%),[7],7.48%
same,Post-ERCP Pancreatitis Yes: number of patients,[7],27
same,Post-ERCP Pancreatitis No (%),[8],86.36%
same,Post-ERCP Pancreatitis No: number of patients,[8],190
same,Post-ERCP Pancreatitis Yes (%),[9],13.64%
same,Post-ERCP Pancreatitis Yes: number of patients,[9],30
same,Post-ERCP Pancreatitis No (%),[10],78.95%
same,Post-ERCP Pancreatitis No: number of patients,[10],15
same,Post-ERCP Pancreatitis Yes (%),[11],21.05%
same,Post-ERCP Pancreatitis Yes: number of patients,[11],4
same,Post-ERCP Pancreatitis No (%),[12],54.58%
same,Post-ERCP Pancreatitis No: number of patients,[12],6
same,Post-ERCP Pancreatitis Yes (%),[13],45.45%
same,Post-ERCP Pancreatitis Yes: number of patients,[13],5
same,Post-ERCP Pancreatitis No (%),[14],95.00%
same,Post-ERCP Pancreatitis No: number of patients,[14],133
same,Post-ERCP Pancreatitis Yes (%),[15],5.00%
same,Post-ERCP Pancreatitis Yes: number of patients,[15],7
same,Post-ERCP Pancreatitis No (%),[16],57.85%
same,Post-ERCP Pancreatitis No: number of patients,[16],14
same,Post-ERCP Pancreatitis Yes (%),[17],46.15%
same,Post-ERCP Pancreatitis Yes: number of patients,[17],12
same,Post-ERCP Pancreatitis No (%),[18],97.22%
same,Post-ERCP Pancreatitis No: number of patients,[18],105
same,Post-ERCP Pancreatitis Yes (%),[19],2.78%
same,Post-ERCP Pancreatitis Yes: number of patients,[19],3
same,Post-ERCP Pancreatitis No (%),[20],78.26%
same,Post-ERCP Pancreatitis No: number of patients,[20],18
same,Post-ERCP Pancreatitis Yes (%),[21],21.74%
same,Post-ERCP Pancreatitis Yes: number of patients,[21],5
same,Post-ERCP Pancreatitis Yes (%),"sub-population Stent Insertion into Pancreatic Duct, N = 23, p 1.0000, listed as sPS",21.7%
same,Post-ERCP Pancreatitis No (%),[22],98.28%
same,Post-ERCP Pancreatitis No: number of patients,[22],57
same,Post-ERCP Pancreatitis Yes (%),[23],1.72%
same,Post-ERCP Pancreatitis Yes: number of patients,[23],1
same,Post-ERCP Pancreatitis No (%),[24],88.24%
same,Post-ERCP Pancreatitis No: number of patients,[24],15
same,Post-ERCP Pancreatitis Yes (%),[25],11.76%
same,Post-ERCP Pancreatitis Yes: number of patients,[25],2
same,Post-ERCP Pancreatitis No (%),[26],92.73%
same,Post-ERCP Pancreatitis No: number of patients,[26],51
same,Post-ERCP Pancreatitis Yes (%),[27],7.27%
same,Post-ERCP Pancreatitis Yes: number of patients,[27],4
same,Post-ERCP Pancreatitis No (%),[28],97.14%
same,Post-ERCP Pancreatitis No: number of patients,[28],34
same,Post-ERCP Pancreatitis Yes (%),[29],2.86%
same,Post-ERCP Pancreatitis Yes: number of patients,[29],1
